Source: patent US9079974B2, “GH-RH analogs with potent agonistic effects” (The University of Miami, priority 2011, dated 2015)
Square brackets hold non-standard residues; d marks the D form. Peptide text beside a SMILES is read from it. * marks the point of attachment. Phe(F5) = N[C@@H](Cc1c(F)c(F)c(F)c(F)c1F)C(=O)O; Desaminotyrosyl = O=C(CCc1ccc(O)cc1)*; NMeY = CN[C@@H](Cc1ccc(O)cc1)C(=O)O; Agmatine = N=C(N)NCCCCN*; Nle = CCCC[C@H](N)C(=O)O; Orn = NCCC[C@H](N)C(=O)O; Abu = CC[C@H](N)C(=O)O; GABA = NCCCC(=O)O

molecular target: T1, GHRH receptor (Homo sapiens, UniProt Q02643); assay: GHRH receptor binding, 125I-labeled JV-1-42 ligand competition, human pituitary membrane homogenates (Table 7); settings: 125I-labeled JV-1-42, human pituitary membranes
T1 construct: Normal human pituitaries were purchased from the National Hormone and Peptide Program; tissue National Hormone and Peptide Program (A. F. Parlow); host or cells: normal human pituitary, membrane fraction
T1 sequence (Q02643 23-423): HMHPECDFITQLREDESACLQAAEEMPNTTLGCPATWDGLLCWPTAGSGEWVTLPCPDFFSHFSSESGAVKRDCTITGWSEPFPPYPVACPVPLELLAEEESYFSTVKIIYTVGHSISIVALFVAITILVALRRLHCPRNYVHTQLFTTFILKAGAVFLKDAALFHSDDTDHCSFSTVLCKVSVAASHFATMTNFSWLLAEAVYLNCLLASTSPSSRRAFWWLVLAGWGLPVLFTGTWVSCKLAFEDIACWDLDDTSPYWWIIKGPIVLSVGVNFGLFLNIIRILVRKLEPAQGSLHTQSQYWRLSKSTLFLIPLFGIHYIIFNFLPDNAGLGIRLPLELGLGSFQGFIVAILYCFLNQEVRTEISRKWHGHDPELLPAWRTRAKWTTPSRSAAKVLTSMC
Description: Preparation of human pituitary membrane fraction and receptor binding of GHRH agonists were performed as previously described, by using a sensitive in vitro ligand competition assay based on binding of ^125I-labeled JV-1-42 to human pituitary membrane homogenates. Normal human pituitaries were purchased from the National Hormone and Peptide Program (A. F. Parlow, Los Angeles, County Harbor-UCLA Medical Center, Torrance, Calif.).

SMILES	IC50
CCCC[C@H](NC(=O)[C@@H](NC(=O)[C@H](CC(=O)O)NC(=O)[C@H](CCC(N)=O)NC(=O)[C@H](CC(C)C)NC(=O)[C@H](CC(C)C)NC(=O)[C@H](CCCN)NC(=O)[C@H](CCCNC(=N)N)NC(=O)[C@H](C)NC(=O)[C@H](CO)NC(=O)[C@H](CC(C)C)NC(=O)[C@H](CCC(N)=O)NC(=O)[C@H](CC)NC(=O)[C@H](CC(C)C)NC(=O)[C@@H](NC(=O)[C@H](CCCN)NC(=O)[C@H](CCCNC(=N)N)NC(=O)[C@H](Cc1ccc(O)cc1)NC(=O)[C@H](CO)NC(=O)[C@H](CC(N)=O)NC(=O)[C@@H](NC(=O)[C@H](Cc1c(F)c(F)c(F)c(F)c1F)NC(=O)[C@@H](NC(=O)[C@H](C)NC(=O)[C@H](CC(=O)O)NC(=O)[C@@H](C)NC(=O)[C@H](Cc1ccc(O)cc1)NC)[C@@H](C)CC)[C@@H](C)O)C(C)C)[C@@H](C)CC)C(=O)N[C@@H](CC(=O)O)C(=O)NCCCCNC(=N)N [Peptide P-20359, [N—Me-Tyr^1, D-Ala^2, Fpa5^6, Orn^12, Abu^15, Orn^21, Nle^27, Asp^28, Agm^29]hGH-RH(1-29)] (H-[NMeY][dA]DAI[Phe(F5)]TNSYR[Orn]VL[Abu]QLSAR[Orn]LLQDI[Nle]D-Agmatine)	3.05 nM
CCCC[C@H](NC(=O)[C@@H](NC(=O)[C@H](CC(=O)O)NC(=O)[C@H](CCC(N)=O)NC(=O)[C@H](CC(C)C)NC(=O)[C@H](CC(C)C)NC(=O)[C@H](CCCN)NC(=O)[C@H](CCCNC(=N)N)NC(=O)[C@H](C)NC(=O)[C@H](CO)NC(=O)[C@H](CC(C)C)NC(=O)[C@H](CCC(N)=O)NC(=O)[C@H](CC)NC(=O)[C@H](CC(C)C)NC(=O)[C@@H](NC(=O)[C@H](CCCN)NC(=O)[C@H](CCCNC(=N)N)NC(=O)[C@H](Cc1ccc(O)cc1)NC(=O)[C@H](CO)NC(=O)[C@H](CCC(N)=O)NC(=O)[C@@H](NC(=O)[C@H](Cc1ccccc1)NC(=O)[C@@H](NC(=O)[C@H](C)NC(=O)[C@H](CC(=O)O)NC(=O)[C@@H](C)NC(=O)[C@H](Cc1ccc(O)cc1)NC)[C@@H](C)CC)[C@@H](C)O)C(C)C)[C@@H](C)CC)C(=O)N[C@@H](CC(=O)O)C(=O)NCCCCNC(=N)N [Peptide P-20361, [N—Me-Tyr^1, D-Ala^2, Gln^8, Orn^12, Abu^15, Orn^21, Nle^27, Asp^28, Agm^29]hGH-RH(1-29)] (H-[NMeY][dA]DAIFTQSYR[Orn]VL[Abu]QLSAR[Orn]LLQDI[Nle]D-Agmatine)	0.82 nM
CCCC[C@H](NC(=O)[C@@H](NC(=O)[C@H](CC(=O)O)NC(=O)[C@H](CCC(N)=O)NC(=O)[C@H](CC(C)C)NC(=O)[C@H](CC(C)C)NC(=O)[C@H](CCCN)NC(=O)[C@H](CCCNC(=N)N)NC(=O)[C@H](C)NC(=O)[C@H](CO)NC(=O)[C@H](CC(C)C)NC(=O)[C@H](CCC(N)=O)NC(=O)[C@H](CC)NC(=O)[C@H](CC(C)C)NC(=O)[C@@H](NC(=O)[C@H](CCCN)NC(=O)[C@H](CCCNC(=N)N)NC(=O)[C@H](Cc1ccc(O)cc1)NC(=O)[C@H](CO)NC(=O)[C@H](CC(N)=O)NC(=O)[C@@H](NC(=O)[C@H](Cc1ccccc1)NC(=O)[C@@H](NC(=O)[C@H](C)NC(=O)[C@H](CC(=O)O)NC(=O)[C@@H](C)NC(=O)[C@H](Cc1ccc(O)cc1)NC)[C@@H](C)CC)[C@@H](C)O)C(C)C)[C@@H](C)CC)C(=O)N[C@@H](CC(=O)O)C(=O)NCCCCNC(=N)N [Peptide P-20367, [N—Me-Tyr^1, D-Ala^2, Orn^12, Abu^15, Orn^21, Nle^27, Asp^28, Agm^29]hGH-RH(1-29)] (H-[NMeY][dA]DAIFTNSYR[Orn]VL[Abu]QLSAR[Orn]LLQDI[Nle]D-Agmatine)	1.7 nM
CCCC[C@H](NC(=O)[C@@H](NC(=O)[C@H](CC(=O)O)NC(=O)[C@H](CCC(N)=O)NC(=O)[C@H](CC(C)C)NC(=O)[C@H](CC(C)C)NC(=O)[C@H](CCCN)NC(=O)[C@H](CCCNC(=N)N)NC(=O)[C@H](C)NC(=O)[C@H](CO)NC(=O)[C@H](CC(C)C)NC(=O)[C@H](CCC(N)=O)NC(=O)[C@H](CC)NC(=O)[C@H](CC(C)C)NC(=O)[C@@H](NC(=O)[C@H](CCCN)NC(=O)[C@H](CCCNC(=N)N)NC(=O)[C@H](Cc1ccc(O)cc1)NC(=O)[C@H](CO)NC(=O)[C@H](CCC(N)=O)NC(=O)[C@@H](NC(=O)[C@H](Cc1ccccc1)NC(=O)[C@@H](NC(=O)[C@H](C)NC(=O)[C@H](CC(=O)O)NC(=O)[C@@H](C)NC(=O)CCc1ccc(O)cc1)[C@@H](C)CC)[C@@H](C)O)C(C)C)[C@@H](C)CC)C(=O)N[C@@H](CC(=O)O)C(=O)N[C@H](CCCNC(=N)N)C(=O)NC [Peptide P-27401, [Dat^1, D-Ala^2, Gln^8, Orn^12, Abu^15, Orn^21, Nle^27, Asp^28, D-Arg^29]hGH-RH(1-29)NH—CH3] (Desaminotyrosyl-[dA]DAIFTQSYR[Orn]VL[Abu]QLSAR[Orn]LLQDI[Nle]D[dR]-NHMe)	2.74 nM
CCCC[C@H](NC(=O)[C@@H](NC(=O)[C@H](CC(=O)O)NC(=O)[C@H](CCC(N)=O)NC(=O)[C@H](CC(C)C)NC(=O)[C@H](CC(C)C)NC(=O)[C@H](CCCN)NC(=O)[C@H](CCCNC(=N)N)NC(=O)[C@H](C)NC(=O)[C@H](CO)NC(=O)[C@H](CC(C)C)NC(=O)[C@H](CCC(N)=O)NC(=O)[C@H](CC)NC(=O)[C@H](CC(C)C)NC(=O)[C@@H](NC(=O)[C@H](CCCN)NC(=O)[C@H](CCCNC(=N)N)NC(=O)[C@H](Cc1ccc(O)cc1)NC(=O)[C@H](CO)NC(=O)[C@H](CC(N)=O)NC(=O)[C@@H](NC(=O)[C@H](Cc1c(F)c(F)c(F)c(F)c1F)NC(=O)[C@@H](NC(=O)[C@H](C)NC(=O)[C@H](CC(=O)O)NC(=O)[C@@H](C)NC(=O)[C@H](Cc1ccc(O)cc1)NC)[C@@H](C)CC)[C@@H](C)O)C(C)C)[C@@H](C)CC)C(=O)N[C@@H](CO)C(=O)N[C@@H](CCCNC(=N)N)C(=O)NCCCC(=O)NC [Peptide P-27414, [N—Me-Tyr^1, D-Ala^2, Fpa5^6, Orn^12, Abu^15, Orn^21, Nle^27, Gab^30]hGH-RH(1-30)NH—CH3] (H-[NMeY][dA]DAI[Phe(F5)]TNSYR[Orn]VL[Abu]QLSAR[Orn]LLQDI[Nle]SR[GABA]-NHMe)	1.56 nM
CCCC[C@H](NC(=O)[C@@H](NC(=O)[C@H](CC(=O)O)NC(=O)[C@H](CCC(N)=O)NC(=O)[C@H](CC(C)C)NC(=O)[C@H](CC(C)C)NC(=O)[C@H](CCCN)NC(=O)[C@H](CCCNC(=N)N)NC(=O)[C@H](C)NC(=O)[C@H](CO)NC(=O)[C@H](CC(C)C)NC(=O)[C@H](CCC(N)=O)NC(=O)[C@H](CC)NC(=O)[C@H](CC(C)C)NC(=O)[C@@H](NC(=O)[C@H](CCCN)NC(=O)[C@H](CCCNC(=N)N)NC(=O)[C@H](Cc1ccc(O)cc1)NC(=O)[C@H](CO)NC(=O)[C@H](CCC(N)=O)NC(=O)[C@@H](NC(=O)[C@H](Cc1ccccc1)NC(=O)[C@@H](NC(=O)[C@H](C)NC(=O)[C@H](CC(=O)O)NC(=O)[C@@H](C)NC(=O)[C@H](Cc1ccc(O)cc1)NC)[C@@H](C)CC)[C@@H](C)O)C(C)C)[C@@H](C)CC)C(=O)N[C@@H](CC(=O)O)C(=O)N[C@@H](CCCNC(=N)N)C(=O)NCC [Peptide P-28420, [N—Me-Tyr^1, D-Ala^2, Gln^8, Orn^12, Abu^15, Orn^21, Nle^27, Asp^28]hGH-RH(1-29)NH—CH2—CH3] (H-[NMeY][dA]DAIFTQSYR[Orn]VL[Abu]QLSAR[Orn]LLQDI[Nle]DR-NHEt)	0.52 nM
CCCC[C@H](NC(=O)[C@@H](NC(=O)[C@H](CC(=O)O)NC(=O)[C@H](CCC(N)=O)NC(=O)[C@H](CC(C)C)NC(=O)[C@H](CC(C)C)NC(=O)[C@H](CCCN)NC(=O)[C@H](CCCNC(=N)N)NC(=O)[C@H](C)NC(=O)[C@H](CO)NC(=O)[C@H](CC(C)C)NC(=O)[C@H](CCC(N)=O)NC(=O)[C@H](CC)NC(=O)[C@H](CC(C)C)NC(=O)[C@@H](NC(=O)[C@H](CCCN)NC(=O)[C@H](CCCNC(=N)N)NC(=O)[C@H](Cc1ccc(O)cc1)NC(=O)[C@H](CO)NC(=O)[C@H](CC(N)=O)NC(=O)[C@@H](NC(=O)[C@H](Cc1ccccc1)NC(=O)[C@@H](NC(=O)[C@H](C)NC(=O)[C@H](CC(=O)O)NC(=O)[C@@H](C)NC(=O)[C@H](Cc1ccc(O)cc1)NC)[C@@H](C)CC)[C@@H](C)O)C(C)C)[C@@H](C)CC)C(=O)N[C@@H](CC(=O)O)C(=O)N[C@@H](CCCNC(=N)N)C(=O)NCC [Peptide P-28421, [N—Me-Tyr^1, D-Ala^2, Orn^12, Abu^15, Orn^21, Nle^27, Asp^28]hGH-RH(1-29)NH—CH2—CH3] (H-[NMeY][dA]DAIFTNSYR[Orn]VL[Abu]QLSAR[Orn]LLQDI[Nle]DR-NHEt)	1.47 nM
CCCC[C@H](NC(=O)[C@@H](NC(=O)[C@H](CC(=O)O)NC(=O)[C@H](CCC(N)=O)NC(=O)[C@H](CC(C)C)NC(=O)[C@H](CC(C)C)NC(=O)[C@H](CCCN)NC(=O)[C@H](CCCNC(=N)N)NC(=O)[C@H](C)NC(=O)[C@H](CO)NC(=O)[C@H](CC(C)C)NC(=O)[C@H](CCC(N)=O)NC(=O)[C@H](CC)NC(=O)[C@H](CC(C)C)NC(=O)[C@@H](NC(=O)[C@H](CCCN)NC(=O)[C@H](CCCNC(=N)N)NC(=O)[C@H](Cc1ccc(O)cc1)NC(=O)[C@H](CO)NC(=O)[C@H](CC(N)=O)NC(=O)[C@@H](NC(=O)[C@H](Cc1ccccc1)NC(=O)[C@@H](NC(=O)[C@H](C)NC(=O)[C@H](CC(=O)O)NC(=O)[C@@H](C)NC(=O)CCc1ccc(O)cc1)[C@@H](C)CC)[C@@H](C)O)C(C)C)[C@@H](C)CC)C(=O)N[C@@H](CO)C(=O)N[C@@H](CCCNC(=N)N)C(=O)N[C@@H](CCC(N)=O)C(=O)NCCCC(N)=O [Peptide P-29702, [Dat^1, D-Ala^2, Orn^12, Abu^15, Orn^21, Nle^27, Gln-Gab^30]hGH-RH(1-30)NH2] (Desaminotyrosyl-[dA]DAIFTNSYR[Orn]VL[Abu]QLSAR[Orn]LLQDI[Nle]SRQ[GABA]-NH2)	0.86 nM
